Assay results published in paper PMC9102953, “New Derivatives of 5-Substituted Uracils: Potential Agents with a Wide Spectrum of Biological Activity” (Molecules, 2022).
Where two headings read alike, the source gives them in different places.

Experiments:
[1] = in vitro; conditions: dog
[2] = test system: yellow fever virus (YFV) strain 17 D; experiment: microbe, parasite or virus in culture; assay type: cell-based; conditions: for EC50: Yellow fever virus, Huh-7, read-out: EC50 (μM) YFV 17D, Huh7
[3] = test system: respiratory syncytial virus (RSV) strain A Long; experiment: microbe, parasite or virus in culture; assay type: cell-based; conditions: for EC50: human respiratory syncytial virus, HEL 299, read-out: EC50 (μM) RSV A Long, HEL 299
[4] = in vitro; conditions: human
[5] = test system: HCoV-OC43; experiment: Antiviral cytopathicity assay, HCoV-OC43 in HEL 299 cells; assay type: cell-based
[6] = in vitro; conditions: human; remark: listed apart in the source
[7] = test system: a variety of RNA viruses; assay type: cell-based
[8] = test system: HEL299, Huh 7 and MDCK cells
[9] = Betacoronavirus 1, OC43, HEL 299, read-out: EC50 (μM) HCoV-OC43, HEL 299
[10] = Betacoronavirus 1, OC43, HEL 299 cells, reduction of virus-induced cytopathicity by 50%, read-out: EC50 (μM) HCoV-OC43, HEL 299

SMILES | CC50 [1] | EC50 [2] | EC50 [3] | CC50 [4] | EC50 [5, 9] | CC50 [6] | activity against yellow fever virus YFV (strain 17D) (in words) [2] | melting point | EC50 [5, 10] | biological activity against HCoV OC43 (in words) [5] | inhibition of respiratory syncytial virus RSV (strain A Long) (in words) [3] | antiviral activity in the screening (in words) [7] | cytotoxicity in the tested cell lines (in words) [8]
CCCCCCCc1ccc(Nc2cn(C3C=CC(O)C3)c(=O)n(C3C=CC(O)C3)c2=O)cc1 (racemic) [(±)-4f, (±)-1-(4′-hydroxycyclopent-2′-en-1′-yl)-3-(4‴-hydroxycyclopent-2‴-en-1‴-yl)-5-(-((4″-heptylphenyl)amino)uracil] | > 100 µM | > 100 µM | > 100 µM | > 100 µM | > 100 µM | > 100 µM | – | – | – | – | – | – | –
CC(C)(C)c1ccc(Oc2cn(C3C=CC(O)C3)c(=O)n(C3C=CC(O)C3)c2=O)cc1 (racemic) [(±)-11d, (±)-1-(4′-hydroxycyclopent-2′-en-1′-yl)-3-(4‴-hydroxycyclopent-2‴-en-1‴-yl)-5-(4″-(tert-butyl)phenoxy)uracil] | 40.3 µM | 47.9 µM | > 100 µM | – | > 100 µM | – | demonstrated activity | – | – | – | – | – | –
CC(C)c1ccc(Nc2cn(C3C=CC(O)C3)c(=O)[nH]c2=O)cc1 (racemic) [(±)-3g, (±)-1-(4′-Hydroxycyclopent-2′-en-1′-yl)-5-((4″-isopropylphenyl)amino)uracil] | > 100 µM | > 100 µM | > 100 µM | > 100 µM | > 100 µM | > 100 µM | – | – | – | – | – | – | –
CCCCCCc1ccc(Nc2c[nH]c(=O)[nH]c2=O)cc1 [Compound 2d, 5-((4′-Hexylphenyl)amino)uracil] | > 100 µM | > 100 µM | > 100 µM | > 100 µM | – | > 100 µM | – | 332 to 333 °C | > 100 µM | – | – | – | –
CCC(CC)COC(=O)[C@H](C)N[P@](=O)(OC[C@H]1O[C@@](C#N)(c2ccc3c(N)ncnn23)[C@H](O)[C@@H]1O)Oc1ccccc1 [Remdesivir, reference compound] | – | – | 0.01 µM | > 10 µM | 0.03 µM | > 10 µM | – | – | – | – | – | – | –
CCCCCCc1ccc(Nc2cn(C3C=CC(O)C3)c(=O)n(C3C=CC(O)C3)c2=O)cc1 (racemic) [(±)-4d, (±)-1-(4′-hydroxycyclopent-2′-en-1′-yl)-3-(4‴-hydroxycyclopent-2‴-en-1‴-yl)-5-(-((4″-hexylphenyl)amino)uracil] | 51.2 µM | > 100 µM | > 100 µM | > 100 µM | 28.7 µM | > 100 µM | – | – | – | moderate biological activity | – | – | –
CCCCOc1ccc(Oc2cn(C3C=CC(O)C3)c(=O)[nH]c2=O)cc1 (racemic) [(±)-10b, (±)-1-(4′-Hydroxycyclopent-2′-en-1′-yl)-5-(4″-butoxyphenoxy)uracil] | > 100 µM | > 100 µM | > 100 µM | > 100 µM | > 100 µM | > 100 µM | – | – | – | – | – | – | –
CCCCOc1ccc(Oc2c[nH]c(=O)[nH]c2=O)cc1 [Compound 5b, 5-(4-Butoxyphenoxy)uracil] | > 100 µM | > 100 µM | > 100 µM | > 100 µM | – | > 100 µM | – | 271 to 274 °C | > 100 µM | – | – | – | –
Cc1cc(C)cc(Oc2c[nH]c(=O)[nH]c2=O)c1 [Compound 5a, 5-(3,5-Dimethylphenoxy)uracil] | > 100 µM | > 100 µM | > 100 µM | > 100 µM | – | > 100 µM | – | 293 to 295 °C | > 100 µM | – | – | – | –
O=c1[nH]cc(N2CCc3ccccc3C2)c(=O)[nH]1 | – | – | – | – | – | – | – | 311 to 312 °C | – | – | – | – | –
O=c1[nH]cc(N2CCN(c3ccccc3)CC2)c(=O)[nH]1 [Compound 2b, 5-(4-Phenylpiperazin-1-yl)uracil] | > 100 µM | > 100 µM | > 100 µM | > 100 µM | – | > 100 µM | – | 352 to 354.5 °C | > 100 µM | – | – | – | –
CCCCCCCc1ccc(Nc2cn(C3C=CC(O)C3)c(=O)[nH]c2=O)cc1 (racemic) [(±)-3f, (±)-4′-Hydroxycyclopent-2′-en-1′-yl)-5-((4′′-heptylphenyl)amino)uracil] | 70.4 µM | > 100 µM | > 100 µM | > 100 µM | 22.4 µM | > 100 µM | – | – | – | moderate biological activity | – | – | –
O=c1c(N2CCCCCC2)cn(C2C=CC(O)C2)c(=O)n1C1C=CC(O)C1 (racemic) [(±)-4a, (±)-1-(4′-hydroxycyclopent-2′-en-1′-yl)-3-(4‴-hydroxycyclopent-2‴-en-1‴-yl)-5-(azepan-1″-yl)uracil] | > 100 µM | > 100 µM | > 100 µM | > 100 µM | > 100 µM | > 100 µM | – | – | – | – | – | – | –
O=c1[nH]c(=O)n(C2C=CC(O)C2)cc1Oc1ccc(Cl)cc1 (racemic) [(±)-10c, (±)-1-(4′-Hydroxycyclopent-2′-en-1′-yl)-5-(4″-chlorophenoxy)uracil] | > 100 µM | > 100 µM | > 100 µM | > 100 µM | > 100 µM | > 100 µM | – | – | – | – | – | – | –
Cc1cc(C)cc(Oc2cn(C3C=CC(O)C3)c(=O)n(C3C=CC(O)C3)c2=O)c1 (racemic) [(±)-11a, (±)-1-(4′-hydroxycyclopent-2′-en-1′-yl)-3-(4‴-hydroxycyclopent-2‴-en-1‴-yl)-5-(3″,5″-dimethylphenoxy)uracil] | 39.3 µM | > 100 µM | 28.7 µM | – | 29.8 µM | – | – | – | – | moderate biological activity | inhibited | – | –
O=c1[nH]c(=O)n(C2C=CC(O)C2)cc1N1CCCCCC1 (racemic) [(±)-3a, (±)-1-(4′-Hydroxycyclopent-2′-en-1′-yl)-5-(azepan-1″-yl)uracil] | > 100 µM | > 100 µM | > 100 µM | > 100 µM | > 100 µM | > 100 µM | – | – | – | – | – | – | –
O=c1c(N2CCN(c3ccccc3)CC2)cn(C2C=CC(O)C2)c(=O)n1C1C=CC(O)C1 (racemic) [(±)-4b, (±)-1-(4′-hydroxycyclopent-2′-en-1′-yl)-3-(4‴-hydroxycyclopent-2‴-en-1‴-yl)-5-(4″-phenylpiperazin-1″-yl)uracil] | > 100 µM | > 100 µM | > 100 µM | > 100 µM | > 100 µM | > 100 µM | – | – | – | – | – | – | –
O=c1c(Oc2ccc(Cl)cc2)cn(C2C=CC(O)C2)c(=O)n1C1C=CC(O)C1 (racemic) [(±)-11c, (±)-1-(4′-hydroxycyclopent-2′-en-1′-yl)-3-(4‴-hydroxycyclopent-2‴-en-1‴-yl)-5-(4″-chlorophenoxy)uracil] | 47.4 µM | > 100 µM | > 100 µM | > 100 µM | > 100 µM | > 100 µM | – | – | – | – | – | did not show any activity | marked cytotoxicity
CC(C)(C)c1ccc(Nc2c[nH]c(=O)[nH]c2=O)cc1 [Compound 2e, 5-((4′-tert-Butylphenyl)amino)uracil] | > 100 µM | > 100 µM | > 100 µM | > 100 µM | – | > 100 µM | – | 354.5 to 356.5 °C | > 100 µM | – | – | – | –
CC(C)(C)c1ccc(Oc2cn(C3C=CC(O)C3)c(=O)[nH]c2=O)cc1 (racemic) [(±)-10d, (±)-1-(4′-Hydroxycyclopent-2′-en-1′-yl)-5-(4″-(tert-butyl)phenoxy)uracil] | > 100 µM | > 100 µM | > 100 µM | > 100 µM | > 100 µM | > 100 µM | – | – | – | – | – | – | –
CC(C)(C)c1ccc(Oc2c[nH]c(=O)[nH]c2=O)cc1 [Compound 5d, 5-(4-tert-Butylphenoxy)uracil] | > 100 µM | > 100 µM | > 100 µM | > 100 µM | – | > 100 µM | – | 273 to 275 °C | > 100 µM | – | – | – | –
O=c1[nH]cc(N2CCCCCC2)c(=O)[nH]1 [Compound 2a, 5-(Azepan-1-yl)uracil] | > 100 µM | > 100 µM | > 100 µM | > 100 µM | – | > 100 µM | – | – | > 100 µM | – | – | – | –
O=c1[nH]cc(Oc2ccc(Cl)cc2)c(=O)[nH]1 [Compound 5c, 5-(4-Chlorophenoxy)uracil] | > 100 µM | > 100 µM | > 100 µM | > 100 µM | – | > 100 µM | – | 331 to 333 °C | > 100 µM | – | – | – | –
CCCCCCCOc1ccc(Nc2cn(C3C=CC(O)C3)c(=O)[nH]c2=O)cc1 (racemic) [(±)-3i, (±)-1-(4′-Hydroxycyclopent-2′-en-1′-yl)-5-((4″-(heptyloxy)phenyl)amino)uracil] | 34 µM | > 100 µM | > 100 µM | – | 36.8 µM | – | – | – | – | moderate biological activity | – | – | –
O=c1[nH]c(=O)n(C2C=CC(O)C2)cc1N1CCN(c2ccccc2)CC1 (racemic) [(±)-3b, (±)-1-(4′-Hydroxycyclopent-2′-en-1′-yl)-5-(4″-phenylpiperazin-1″-yl)uracil] | > 100 µM | > 100 µM | > 100 µM | > 100 µM | > 100 µM | > 100 µM | – | – | – | – | – | – | –
CCCCCCc1ccc(Nc2cn(C3C=CC(O)C3)c(=O)[nH]c2=O)cc1 (racemic) [(±)-3d, (±)-1-(4′-Hydroxycyclopent-2′-en-1′-yl)-5-((4′-hexylphenyl)amino)uracil] | 30 µM | > 100 µM | > 100 µM | – | > 100 µM | – | – | – | – | – | – | did not show any activity | marked cytotoxicity
